Experiment [1] in a line: Geller-Seifter procedure (anxiolytic conflict test in rats). In kind it is in vivo. As to conditions: Rattus norvegicus, po, 1 h, 60 min before testing, read-out: increase in responding in the `conflict` session (percentage increase in square root of total lever presses in FR5); for change in vivo at 20 mg/kg: 20 mg/kg p.o. The protocol:
Potential anxiolytic properties have been evaluated using the Geller-Seifter procedure based on that originally described by Geller and Seifter (1960) Psychopharmacologia, 1, 482-492.
Rats are trained on a variable interval 30 sec schedule (VI30) to press a lever in order to obtain food reward. The 3 min sessions of the VI30 schedule alternate with 3 min of a schedule (FR5) in which every 5th lever press is followed by a presentation of a food pellet paired with a 0.2 sec mild footshock. The amplitude of the shock is adjusted for each rat to give equivalent response rates. The total study consists of VI and FR components and lasts 30 mins. Rats typically respond with high rates of lever pressing under the VI30 schedule and low response rats under the FR5 `conflict` session. Anxiolytic drugs increase the suppressed response rates of rats in `conflict` sessions.
The compound is administered intraperitoneally or orally to groups of 6-16 rats 30 min (intraperitoneal route) or 60 min (oral route) before testing.
The results are expressed as the percentage increase in square root of the total number of lever presses in the FR5 `conflict` sessions. Square root transformation is necessary to normalise the data for statistical analysis using parametric methods. A change in the square root of the VI can indicate non-specific drug effects i.e. stimulation or sedation.

Experiment [2] has as its target site on or near the Cl^- channel portion of the GABAA /BDZ/Cl^- channel complex. The experiment can be described thus: [^35 S]-TBPS binding to rat cerebral cortex membranes in vitro. As to conditions: 2 nM [^35 S]-TBPS, pH 7.1, 25° C. The protocol: [^35 S]-TBPS binding to rat cerebral cortex membranes in vitro
[^35 S]-TBPS labels a site on or near the Cl^- channel portion of the GABAA /BDZ/Cl^- channel complex. Literature studies have shown that [^35 S]-TBPS binding is directly related to the permeability of the Cl^- channel (e.g. Concas et al, 1988).
Modulation of [^35 S]-TBPS binding is measured by a method similar to that of Gee et al (1986).
Pooled rat cerebral cortices were homogenised in 20 volumes of 0.32M sucrose and centrifuged at 1000 g for 20 minutes (4° C.). The supernatant was removed and recentrifuged at 50,000 g (4° C., 20 mins). The P2 pellet was then suspended in 20 volumes of Tris citrate buffer (pH 7.1) and centrifuged at 50,000 g (4° C., 20 mins). This washing step was repeated three times and the pellet finally resuspended in 20 volumes of buffer and stored at -70° C. prior to use.
[…] Non-specific binding was measured in the presence of 10^-4 M picrotoxin. Varying concentrations of test drugs 10^-7, 10^-6, 10^-5 and 10^-4 M final concentration)were added in a volume of 50 μl. The total assay volume was 500 μl. Incubation was stopped by rapid filtration using a Skatron cell harvester and radioactivity measured by liquid scintillation spectrometry. IC50 's were calculated as the concentration of test drug to inhibit 50% of specific binding. Concas A. et al, (1988) J. Neurochem. 51(6), 1868-1876. Gee K. W. et al, (1986) Mol. Pharmacol. 30, 218-225.

Drawing on patent US5079246A, “Novel indoloquinlones” (Beacham Group p. l. c., priority 1988, dated 1992), this text covers change in vivo and IC50 for 14 molecules.

In the case of `Cn1c2ccccc2c2c(N)c3c(nc21)CCCC3=O` [Example E4, 11-Amino-6-methyl-1,2,3,4-tetrahydro-6H-quinindolin-1-one], the change in vivo at 20 mg/kg in experiment [1] was determined as 29%.
As for `CCC1CCc2nc3c(c(N)c2C1=O)c1ccccc1n3C` (racemic) [Example E12, (±) 11-Amino-2-ethyl-6-methyl-1,2,3,4-tetrahydro-6H-quinindolin-1-one], the change in vivo at 20 mg/kg in experiment [1] was 33%. In experiment [2] (done in the presence of GABA), the concentration for half-maximal inhibition (IC50) (as a rule, the concentration that inhibits the measured activity by half) is 1400 nM.
`CC1CC(C)c2nc3c(c(N)c2C1=O)c1ccccc1n3C` (racemic) [Example E15, (±) 11-Amino-1,2,3,4-tetrahydro-2,4,6-trimethyl-6H-quinindolin-1-one]: the half-maximal inhibitory concentration (IC50) in experiment [2] (done in the presence of GABA) was 3800 nM.
For the molecule `Nc1c2c(nc3[nH]c4ccccc4c13)CCCC2=O` [Example E1, 11-Amino-1,2,3,4-tetrahydro-6H-quinindolin-1-one], the change in vivo at 20 mg/kg in experiment [1] turned out to be 16%.
In the case of `CC1CCc2nc3c(c(N)c2C1=O)c1ccccc1n3C` (racemic) [Example E11, (±) 11-Amino-2,6-dimethyl-1,2,3,4-tetrahydro-6H-quinindolin-1-one], the change in vivo at 20 mg/kg in experiment [1] amounted to 52%. Also, the IC50 in experiment [2] (done in the presence of GABA) was 1200 nM.
In experiment [2] (done in the absence of GABA), `Cn1c2ccccc2c2c(N)c3c(nc21)CC(C)(C)CC3=O` [Example E8, 11-Amino-1,2,3,4-tetrahydro-3,3,6-trimethyl-6H-quinindolin-1-one] returned an IC50 of 4400 nM.
`CCCn1c2ccccc2c2c(N)c3c(nc21)CCCC3=O` [Example E6, 11-Amino-6-n-propyl-1,2,3,4-tetrahydro-6H-quinindolin-1-one]: the change in vivo at 20 mg/kg in experiment [1] worked out at 17%. This molecule also came in with a half-maximal inhibitory concentration (IC50) in experiment [2] (done in the absence of GABA) of 3800 nM.
On to `C=CCn1c2ccccc2c2c(N)c3c(nc21)CCCC3=O` [Example E7, 11-Amino-6-(2-propenyl)-1,2,3,4-tetrahydro-6H-quinindolin-1-one], for which the change in vivo at 20 mg/kg in experiment [1] is 16%. Also, the concentration for half-maximal inhibition (IC50) in experiment [2] (done in the presence of GABA) was 1900 nM.
For the molecule `Cn1c2ccccc2c2c(N)c3c(nc21)CCC3=O` [Example E17, 10-Amino-5-methyl-cyclopenta[5,6]pyrido[2,3-b]indol-1-one], the change in vivo at 100 mg/kg in experiment [1] (100 mg/kg p.o.) was determined as 37%.
As to `C#CCC1CCc2nc3c(c(N)c2C1=O)c1ccccc1n3C` (racemic) [Example E14, (±) 11-Amino-6-methyl-2-(2-propynyl)-1,2,3,4-tetrahydro-6H-quinindolin-1-one], the IC50 in experiment [2] (done in the presence of GABA) is 1000 nM.
`Cn1c2ccccc2c2c(N)c3c(nc21)CCCCC3=O` [Example E16, 12-Amino-7-methyl-cyclohepta[5,6]pyrido[2,3-b]indol-1-one]: the change in vivo at 20 mg/kg in experiment [1] turned out to be 11%. Moreover, the half-inhibitory concentration (IC50) in experiment [2] (done in the presence of GABA) turned out to be 3300 nM.
Regarding `CC1CC(=O)c2c(nc3c(c2N)c2ccccc2n3C)C1` (racemic) [Example E10, (±) 11-Amino-3,6-dimethyl-1,2,3,4-tetrahydro-6H-quinindolin-1-one], the change in vivo at 20 mg/kg in experiment [1] was 17%.
As to `Cn1c2ccccc2c2c(N)c3c(nc21)CCC(C)(C)C3=O` [Example E13, 11-Amino-1,2,3,4-tetrahydro-2,2,6-trimethyl-6H-quinindolin-1-one], the change in vivo at 20 mg/kg in experiment [1] stood at 21%. Moreover, the half-maximal inhibitory concentration (IC50) in experiment [2] (done in the presence of GABA) was 1700 nM.
Turning to `CCn1c2ccccc2c2c(N)c3c(nc21)CCCC3=O` [Example E5, 11-Amino-6-ethyl-1,2,3,4-tetrahydro-6H-quinindolin-1-one], the change in vivo at 20 mg/kg in experiment [1] amounted to 29%. Further, in experiment [2] (done in the absence of GABA), the IC50 was 7500 nM.
